# Data taken from US20070129344A1, “Bicyclic 6-alkylidene-penem beta-lactamase inhibitors and beta-lactam antibiotic combination: a broad spectrum antibiotic” (priority 2005, published 2007).
# Counter-ions that a name gives are not always drawn. Like-named read-outs stand apart in the source and are kept apart here.
# How the values were obtained:
# [1] = tested on: P. aeruginosa PT 9587 PTZ-R; test: MIC microbroth dilution; type: cell-based
# Procedure: (§1) The in vitro activities of the antibiotics were determined by the microbroth dilution method as recommended by the National Committee for Clinical Laboratory Standards (NCCLS). (NCCLS. 2000. Methods for Dilution Antimicrobial Susceptibility Tests for Bacteria That Grow Aerobically; Approved Standards: M7-A5, vol. 19. National Committee for Clinical Laboratory Standards, Villanova, Pa.). Mueller-Hinton II broth (MHBII)(BBL Cockeysville, Md.), was used for the testing procedure. […]. The plates were incubated for 18-22 hours at 35° C. in ambient air.
# [2] = tested on: P. aeruginosa PT 9236 PTZ-R; test: MIC microbroth dilution; type: cell-based
# Procedure: as §1
# [3] = tested on: P. aeruginosa PT 8411 PTZ-R; test: MIC microbroth dilution; type: cell-based
# Procedure: as §1
# [4] = tested on: P. aeruginosa PT 8503 PTZ-R; test: MIC microbroth dilution; type: cell-based
# Procedure: as §1
# [5] = tested on: K. pn GC 2391 (pl 5.4; 5.6; 7.6; 8.7 B-lactamases); test: MIC microbroth dilution; β-lactamase class A, A (ESBL), C; type: cell-based, K. pneumoniae; settings: Klebsiella pneumoniae
# Procedure: as §1
# [6] = tested on: E. coli GC 2920 (IRT-2); test: MIC microbroth dilution; β-lactamase class A (IRT); type: cell-based
# Procedure: as §1
# [7] = tested on: E. coli GAR 5929 TEM, OXA, Act-1, CTX (By PCR only); test: MIC microbroth dilution; β-lactamase class A, C, D; type: cell-based
# Procedure: as §1
# [8] = tested on: E. coli GC 1807 OXA-7; test: MIC microbroth dilution; β-lactamase class D; type: cell-based; settings: Escherichia coli, GC1807OXA7, E. coli GC 1807, read-out: MIC
# Procedure: as §1
# [9] = tested on: E. coli GC 1480 OXA-1; test: MIC microbroth dilution; β-lactamase class D; type: cell-based; settings: Escherichia coli, GC1480OXA1, E. coli GC 1480, read-out: MIC
# Procedure: as §1
# [10] = tested on: K. pn GC 3057 (CAZ-R; P/T-R); test: MIC microbroth dilution; β-lactamase class A, A (ESBL); type: cell-based, K. pneumoniae
# Procedure: as §1
# [11] = tested on: K. pn GC 6657 (TEM-1 + SHV-27); test: as above; type: cell-based, K. pneumoniae
# Procedure: as §1
# [12] = tested on: K. pn GC 1554 (TEM-1 + TEM-26 + SHV-1); test: as above; type: cell-based, K. pneumoniae; settings: Klebsiella pneumoniae
# Procedure: as §1
# [13] = tested on: K. pn GC 6494 (TEM-1 + SHV-5); test: as above; type: cell-based, K. pneumoniae; settings: Klebsiella pneumoniae
# Procedure: as §1
# [14] = tested on: K. pn GC 2006 (TEM-10 + SHV-1); test: as above; type: cell-based, K. pneumoniae; settings: Klebsiella pneumoniae
# Procedure: as §1
# [15] = tested on: K. pn GC 1963 (TEM-10 + SHV-1 + SHV-ESBL); test: as above; type: cell-based, K. pneumoniae
# Procedure: as §1
# [16] = tested on: E. coli GAR 6649 TEM, OXA, CTX (By PCR only); test: MIC microbroth dilution; β-lactamase class A, A (ESBL), D; type: cell-based
# Procedure: as §1
# [17] = tested on: E. coli GC 1684 (TEM-10); test: MIC microbroth dilution; β-lactamase class A (ESBL); type: cell-based
# Procedure: as §1
# [18] = tested on: E. coli GC 2300 (TEM-28); test: as above; type: cell-based
# Procedure: as §1
# [19] = tested on: E. coli GC 1995 (TEM-10); test: as above; type: cell-based; settings: Escherichia coli
# Procedure: as §1
# [20] = tested on: E. coli GC 2400 (TEM-43); test: as above; type: cell-based
# Procedure: as §1
# [21] = tested on: E. coli GC 6368 (SHV-7); test: as above; type: cell-based; settings: Escherichia coli
# Procedure: as §1
# [22] = tested on: E. coli GC 2017 (TEM-10 + pl 6.3; 8.1); test: as above; type: cell-based
# Procedure: as §1
# [23] = tested on: S. typhimurium GC 4197 CTX-M-5; test: as above; type: cell-based
# Procedure: as §1
# [24] = tested on: A. baumannii GC 6662 IMI-R; test: MIC microbroth dilution; class PBP (penicillin binding protein); type: cell-based
# Procedure: as §1
# [25] = tested on: A. baumannii GC 6661 IMI-R; test: as above; type: cell-based
# Procedure: as §1
# [26] = tested on: A. baumannii GC 6660 IMI-R; test: as above; type: cell-based
# Procedure: as §1
# [27] = tested on: K. pn GC 6639 (SHV-13); test: MIC microbroth dilution; β-lactamase class A (ESBL); type: cell-based, K. pneumoniae
# Procedure: as §1
# [28] = tested on: K. pn GC 1516 (TEM-26); test: as above; type: cell-based, K. pneumoniae
# Procedure: as §1
# [29] = tested on: K. pn GC 1510 (TEM-10); test: as above; type: cell-based, K. pneumoniae; settings: Klebsiella pneumoniae
# Procedure: as §1
# [30] = tested on: K. pn GC 1832 (SHV-4); test: as above; type: cell-based, K. pneumoniae
# Procedure: as §1
# [31] = tested on: K. pn GC 1830 (SHV-2); test: as above; type: cell-based, K. pneumoniae; settings: Klebsiella pneumoniae
# Procedure: as §1
# [32] = tested on: K. pn GC 3104 (MIR-1 + TEM-1); test: MIC microbroth dilution; β-lactamase class A, C; type: cell-based, K. pneumoniae; settings: Klebsiella pneumoniae
# Procedure: as §1
# [33] = tested on: K. pn GC 6655 (TEM-1 + ACT-1); test: MIC microbroth dilution; β-lactamase class A, C; type: cell-based, K. pneumoniae; settings: Klebsiella pneumoniae
# Procedure: as §1
# [34] = tested on: S. maltophilia GC 1712 (L1); test: MIC microbroth dilution; β-lactamase class B; type: cell-based
# Procedure: as §1
# [35] = Cefepime alone, control of Compound 2 test
# [36] = Cefepime alone, control of Compound 1 test, read-out: MIC
# [37] = Cefepime alone, control of Compound 2 test, read-out: MIC
# [38] = Escherichia coli, Cefepime alone, control of Compound 1 test, read-out: MIC
# [39] = Cefepime alone, control of Compound 1 test
# [40] = Klebsiella pneumoniae, Cefepime alone, control of Compound 1 test, read-out: MIC
# [41] = Cefepime + 4 ug/ml Compound 2, read-out: MIC
# [42] = Escherichia coli, Cefepime + 4 ug/ml Compound 2, read-out: MIC
# [43] = Klebsiella pneumoniae, Cefepime + 4 ug/ml Compound 2, read-out: MIC
smiles,measurement,setting,value
"CO/N=C(\C(=O)N[C@@H]1C(=O)N2C(C(=O)[O-])=C(C[N+]3(C)CCCC3)CS[C@H]12)c1csc(N)n1 [Cefepime, reference compound]",MIC,[1]; [35],4 µg/mL
same,MIC,"[1]; Pseudomonas aeruginosa, PT9587PTZR, Cefepime alone, control of Compound 1 test, read-out: MIC",4 µg/mL
same,MIC,[2]; [35],>16 µg/mL
same,MIC,"[2]; Pseudomonas aeruginosa, PT9236PTZR, Cefepime alone, control of Compound 1 test, read-out: MIC",> 16 µg/mL
same,MIC,[3]; [35],16 µg/mL
same,MIC,"[3]; Pseudomonas aeruginosa, PT8411PTZR, Cefepime alone, control of Compound 1 test, read-out: MIC",16 µg/mL
same,MIC,[4]; [35],8 µg/mL
same,MIC,"[4]; Pseudomonas aeruginosa, PT8503PTZR, Cefepime alone, control of Compound 1 test, read-out: MIC",8 µg/mL
same,MIC,[5]; [36],16 µg/mL
same,MIC,[5]; [37],4 µg/mL
same,MIC,[6]; [35],0.06 µg/mL
same,MIC,[6]; [38],0.06 µg/mL
same,MIC,[7]; [35],>16 µg/mL
same,MIC,[7]; [38],> 16 µg/mL
same,MIC,[8]; [39],0.12 µg/mL
same,MIC,[8]; [35],0.25 µg/mL
same,MIC,[9]; [39],4 µg/mL
same,MIC,[9]; [35],2 µg/mL
same,MIC,[10]; [35],>16 µg/mL
same,MIC,[10]; [40],> 16 µg/mL
same,MIC,[11]; [35],0.12 µg/mL
same,MIC,[11]; [40],0.12 µg/mL
same,MIC,[12]; [36],> 16 µg/mL
same,MIC,[12]; [37],8 µg/mL
same,MIC,[13]; [36],4 µg/mL
same,MIC,[13]; [37],2 µg/mL
same,MIC,[14]; [36],> 16 µg/mL
same,MIC,[14]; [37],8 µg/mL
same,MIC,[15]; [35],>16 µg/mL
same,MIC,[15]; [40],> 16 µg/mL
same,MIC,[16]; [35],>16 µg/mL
same,MIC,[16]; [38],> 16 µg/mL
same,MIC,[17]; [35],>16 µg/mL
same,MIC,[17]; [38],> 16 µg/mL
same,MIC,[18]; [35],16 µg/mL
same,MIC,[18]; [38],16 µg/mL
same,MIC,[19]; [36],8 µg/mL
same,MIC,[19]; [37],16 µg/mL
same,MIC,[20]; [35],>16 µg/mL
same,MIC,[20]; [38],> 16 µg/mL
same,MIC,[21]; [36],1 µg/mL
same,MIC,[21]; [37],2 µg/mL
same,MIC,[22]; [35],>16 µg/mL
same,MIC,[22]; [38],> 16 µg/mL
same,MIC,[23]; [35],>16 µg/mL
same,MIC,"[23]; Salmonella enterica, Cefepime alone, control of Compound 1 test, read-out: MIC",> 16 µg/mL
same,MIC,"[24]; Acinetobacter baumannii, GC6662IMIR, Cefepime alone, control of Compound 1 test, read-out: MIC",> 16 µg/mL
same,MIC,[24]; [35],>16 µg/mL
same,MIC,"[25]; Acinetobacter baumannii, GC6661IMIR, Cefepime alone, control of Compound 1 test, read-out: MIC",> 16 µg/mL
same,MIC,[25]; [35],>16 µg/mL
same,MIC,"[26]; Acinetobacter baumannii, GC6660IMIR, Cefepime alone, control of Compound 1 test, read-out: MIC",> 16 µg/mL
same,MIC,[26]; [35],>16 µg/mL
same,MIC,[27]; [35],>16 µg/mL
same,MIC,[27]; [40],> 16 µg/mL
same,MIC,[28]; [35],>16 µg/mL
same,MIC,[28]; [40],> 16 µg/mL
same,MIC,[29]; [36],0.5 µg/mL
same,MIC,[29]; [37],2 µg/mL
same,MIC,[30]; [35],2 µg/mL
same,MIC,[30]; [40],2 µg/mL
same,MIC,[31]; [36],1 µg/mL
same,MIC,[31]; [37],0.5 µg/mL
same,MIC,[32]; [36],0.5 µg/mL
same,MIC,[32]; [37],1 µg/mL
same,MIC,[33]; [36],2 µg/mL
same,MIC,[33]; [37],4 µg/mL
same,MIC,[34]; [35],>16 µg/mL
same,MIC,"[34]; Stenotrophomonas maltophilia, Cefepime alone, control of Compound 1 test, read-out: MIC",> 16 µg/mL
"O=C(O)C1=CS[C@@H]2/C(=C\c3cn4c(n3)COCC4)C(=O)N12 [Compound 2, (5R), (6Z)-6-(5,6-Dihydro-8H-imidazo[2.1-c][1,4]oxazin-2-ylmethylene)-7-oxo-4-thia-1-azabicyclo[3.2.0]hept-2-ene-2-carboxylic Acid, Sodium Salt]",MIC,"[1]; Pseudomonas aeruginosa, PT9587PTZR, Cefepime + 4 ug/ml Compound 2, read-out: MIC",2 µg/mL
same,MIC,"[2]; Pseudomonas aeruginosa, PT9236PTZR, Cefepime + 4 ug/ml Compound 2, read-out: MIC",16 µg/mL
same,MIC,"[3]; Pseudomonas aeruginosa, PT8411PTZR, Cefepime + 4 ug/ml Compound 2, read-out: MIC",4 µg/mL
same,MIC,"[4]; Pseudomonas aeruginosa, PT8503PTZR, Cefepime + 4 ug/ml Compound 2, read-out: MIC",2 µg/mL
same,MIC,[5]; [41],0.5 µg/mL
same,MIC,[6]; [42],0.06 µg/mL
same,MIC,[7]; [42],0.12 µg/mL
same,MIC,[8]; Cefepime + 4 ug/ml Compound 2,0.03 µg/mL
same,MIC,[9]; Cefepime + 4 ug/ml Compound 2,0.06 µg/mL
same,MIC,[10]; [43],0.12 µg/mL
same,MIC,[11]; [43],0.06 µg/mL
same,MIC,[12]; [41],0.12 µg/mL
same,MIC,[13]; [41],0.12 µg/mL
same,MIC,[14]; [41],0.25 µg/mL
same,MIC,[15]; [43],0.25 µg/mL
same,MIC,[16]; [42],1 µg/mL
same,MIC,[17]; [42],0.06 µg/mL
same,MIC,[18]; [42],0.25 µg/mL
same,MIC,[19]; [41],0.03 µg/mL
same,MIC,[20]; [42],0.5 µg/mL
same,MIC,[21]; [41],0.06 µg/mL
same,MIC,[22]; [42],0.06 µg/mL
same,MIC,"[23]; Salmonella enterica, Cefepime + 4 ug/ml Compound 2, read-out: MIC",0.25 µg/mL
same,MIC,"[24]; Acinetobacter baumannii, GC6662IMIR, Cefepime + 4 ug/ml Compound 2, read-out: MIC",> 16 µg/mL
same,MIC,"[25]; Acinetobacter baumannii, GC6661IMIR, Cefepime + 4 ug/ml Compound 2, read-out: MIC",16 µg/mL
same,MIC,"[26]; Acinetobacter baumannii, GC6660IMIR, Cefepime + 4 ug/ml Compound 2, read-out: MIC",> 16 µg/mL
same,MIC,[27]; [43],0.12 µg/mL
same,MIC,[28]; [43],0.25 µg/mL
same,MIC,[29]; [41],0.03 µg/mL
same,MIC,[30]; [43],0.06 µg/mL
same,MIC,[31]; [41],0.06 µg/mL
same,MIC,[32]; [41],0.5 µg/mL
same,MIC,[33]; [41],0.12 µg/mL
same,MIC,"[34]; Stenotrophomonas maltophilia, Cefepime + 4 ug/ml Compound 2, read-out: MIC",16 µg/mL
